Values quoted from earlier work as cited in patent US12533344B2, “Formulations” (Glaukos Corporation, priority 2021, dated 2026).
Like-named read-outs stand apart in the source and are kept apart here.

Conditions: for Effective Buffering Range: pH range

CC[C@@H]1C(=O)OC[C@@H]1Cc1cncn1C [pilocarpine, reference compound]
pKa of pilocarpine: ~6.5

Citrate buffer
Effective Buffering Range (listed as Citrate buffer-pKa1): 2.2-5.0
Effective Buffering Range (listed as Citrate buffer-pKa2): 3.0-6.2

CC(O)C(=O)O (stereo not shown) [Lactic acid]
Effective Buffering Range: 2.8-5.3

O=C1O[C@H]([C@@H](O)CO)C(O)=C1O [Ascorbic acid]
Effective Buffering Range: 3.3-6.2

O=C(O)CCCCCCCC(=O)O [Azeliac acid]
pKa (buffers and stabilizers of Table 1): 4.60
Effective Buffering Range: 3.3-6.0
